For test [1], the system named is H9c2 rat heart muscle cell. As to the kind of experiment: Serum deprivation, cell viability by MTT test (H9c2). Type of test: cell-based. To be noted: serum deprived H9c2, 10^−5 M, control 100%, serum deprived alone 50.5%, read-out: relative cell viability. The protocol: Experiments were carried out using WEH1 mouse fibrosarcoma and H9c2 rat heart muscle cell lines divided into three groups: • control (10% FCS fetal calf serum) • serum deprived • N-[2-hydroxy-3-(1-piperidinyl)propoxy]-3-pyridinecarboximidoyl chloride maleate (10^−5 M) treated and serum deprived 1.2(i) Serum Deprivation and MTT Test
We have screened various cell lines, drug concentrations, pretreatment and deprivation times and we have found the most appropriate conditions as follows: […] H9c2 rat heart muscle cell (n=6) and WEHI mouse fibrosarcoma cell (n=7) have been plated on 24 well plates in 10% FCS DMEM (Dulbecco modified Eagle's medium) and incubated for 2 hours at 37 C, 5% CO2. Medium has been discarded and replaced by 10% FCS DMEM containing 10^−5 M N-[2-hydroxy-3-(1-piperidinyl)propoxy ]-3-pyridinecarboximidoyl chloride maleate. […] Cell viability was measured by MTT test based on the method of Plumb et al. (Cancer Res. 49: 4435-4444 (1989)) The tetrazolium salt method involving conversion of MTT (3-(4,5-dimethylthiazol-2yl)-2,5-diphenyltetrazolium bromide) to colored formazan by alive cells, served as an indirect measurement of cell viability. […] O.D. of the plates was read at 570 nm on an ELISA plate reader (Labsystems Multiskan Biochromatic type:348). […] Relative cell viability was calculated defining control group as 100%.
(Tetrazolium assays rely on reduction of a dye to a coloured formazan, in cell work by metabolically active cells.)

The subject of the next test is GRP-94. As to the kind of experiment: Level of GRP-94 in STZ diabetic rat liver (Western blot). Type of test: in vivo. To be noted: for relative amount of GRP-94: rats diabetic for 4 weeks.
Test [2] concerns human skin grafted on severe combined immunodeficiency disease (SCID) mice. As to the kind of experiment: UVB light induced skin injury in human skin grafted SCID mice. To be noted: 5.0 mg/kg i.p. for 7 days. It is filed as in vivo, mouse. The protocol: (§1) Human skin tissues were grafted onto immunodeficiency (SCID) mice. The experimental protocol involved a treatment of one group of the mice with N-[2-hydroxy-3-(1-piperidinyl)propoxy]-3-piridinecarboxymidoyl chloride maleate (5.0 mg/kg i.p.) and the other with the solvent NaCl solution (300 μl) for 7 days. On day 8, both groups of mice were exposed to UVB light (100 mJ/cm^2) 24 hours subsequent to the exposure, skin biopsies were taken for histological (sections stained with hematoxylin and eosin), and immunohistological examinations (indirect immunoflourescence technique with monoclonal antibody, mAB).
(i) Human skin transplanted SCID mice treated by N-[2-hydroxy-3-(1-piperidinyl)propoxy]-3-piridinecarboximidoyl chloride maleate (5.0 mg/kg i.p.) or vehicle were exposed to UVB light (100 mJ/cm^2). After 24 h skin biopsies were taken for histological examination and for hsp72 determination using immunohistological and Western blotting techniques.

The test system of test [3] is hsp72. The experiment in a line: hsp72 in skin of UVB exposed human skin grafted SCID mice (immunofluorescence, Western blot). Type of test: in vivo. The conditions noted are these: 5.0 mg/kg i.p. How it is done:
as §1
All steps were carried out at room temperature. Skin (about 9-35 mg) was cut into tiny pieces and homogenized with frosted-glass pestle in Eppendorf tubes for 2 min. in ([…]) of 2 times concentrated Laemmli buffer (65 mM Tris-HCI, pH 6.8: 5% β-mercaptoethanol; 2% SDS; 10% glycerol; 0.1% bromophenolblue; all of these materials were Sigma products). Then samples were solubilized for another 60 min. with continuous shaking. The homogenates were centrifuged at 10.000 rpm for 10 min. prior loading to the gel.
Electrophoresis were carried out on 8% polyacrylamide gel with 10 μl of sample per lane at constant voltage (50 V) for overnight. […]
On the technique in general: Immunoblotting shows a protein as a band on a membrane.

Test [4] has as its system HSP72. The experiment in a line: Heat stress induced HSP72 production in 3T3 cells. Type of test: cell-based, mouse. The conditions noted are these: 10^−5 M. An outline of the steps:
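Mouse 3T3 fibroblasts in MEM monolayer were heat-stressed 30 min at 43° C, with test compounds at 10^−5 M given 15 min before or 100 min after stress. HSP72 detected by immunoblot with SPA 810 primary and HRP secondary antibodies, quantified by densitometry.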

SMILES strings stand for the structures.

On to `O=C(O)/C=C\C(=O)O.OC(CON=C(Cl)c1cccnc1)CN1CCCCC1` (centres unmarked) [N-[2-hydroxy-3-(1-piperidinyl)-propoxy]3-pyridinecarboximidoyl chloride maleate], for which the viability at 10 µM in test [1] worked out at 82.8%. Besides, the “decrease of relative GRP-94 content” value in the test on GRP-94 (1 week and 2-weeks diabetic animals, 20 mg/kg/day p.o.) was “completely be reverted”. Further, in the test with GRP-94 (in combination with insulin, 1 week and 2-weeks samples), the “levels of GRP-94 compared to the control state” value is “almost doubled”. The “relative amount of GRP-94” value in the test on GRP-94 (compound alone) is given as “no significant alteration”; with GRP-94 (insulinized and treated with the compound), “recovery of GRP-94 to the control level”. The “clinical signs of injuries due to UV exposure” value in test [2] (UVB 100 mJ/cm^2, listed as N-[2-hydroxy-3-(1-piperidinyl)propoxy]-3-piridinecarboximidoyl chloride maleate) is on record as “prevented UVB light induced skin injury”; in test [2] (UVB 100 mJ/cm^2, listed as N-[2-hydroxy-3-(1-piperidinyl)propoxy]-3-piridinecarboxymidoyl chloride maleate) it was “clinical signs of injuries due to UV exposure could not be observed”. The “amount of hsp72 by Western blotting” value with hsp72 [3] (UVB 100 mJ/cm^2, biopsy after 24 h) is “increased amount of hsp72”. The “hsp72 staining by indirect immunofluorescence” value with hsp72 [3] (UVB 100 mJ/cm^2, biopsy after 24 hours) is reported as “intense, linear staining along the basement membrane zone”. Further, the “HSP72 level relative to the stress exposed control” value with HSP72 [4] (treatment 15 min. before 30 min. 43° C. heat stress) was “+++ (>100%)”; in the test on HSP72 [4] (treatment 100 min. after 30 min. 43° C. heat stress) it was 0 (0 indicates that the treatment altered by ±20% the stress induced hsp72 level in the cells).

By viability is commonly meant a read-out of living cells in per cent, often relative to untreated cells.

Values taken from US7745465B2, “Method of enhancing cellular production of molecular chaperone, hydroxylamine derivatives useful for enhancing the chaperone production and the preparation thereof” (CytRx Corporation, priority 1995, dated 2010).
